Laboratory results from patent publication EP0382538A2, “A process for the preparation of cysteine-rich polypeptides, including echistatin” (MERCK & CO. INC., priority 1989, dated 1990).

Experiments:
[1] = system: HUMAN PLATELET AGGREGATION; experiment: Platelet aggregation assay (ADP-initiated, fibrinogen-dependent, Chronolog aggregometer); format: cell-based; settings: inhibition of rate of human platelet aggregation by 50%; washed platelets 2 x 10⁸/ml, fibrinogen 100 µg/mL, Ca²⁺ 1 mM, 10 µM ADP, 37°C; platelets from 2-4 donors, duplicate; read-out: IC₅₀(µM) (95% CONFIDENCE LIMITS)
Method: Platelet aggregation was measured at 37°C in a Chronolog aggregometer. The reaction mixture contained washed platelets (2 x 10⁸/ml), fibrinogen (100 µg/mL), Ca²⁺ (1 mM), and the platelet aggregation inhibitor fraction to be tested. The aggregation was initiated by adding 10 µM ADP 1 min after the other components had been added. The reaction was allowed to proceed for at least 2 min. The extent of inhibition of aggregation was expressed as the percentage of the rate of aggregation observed in the absence of inhibitor. […]
The concentration of peptide necessary to inhibit the rate of human platelet aggregation by 50% (IC₅₀) was determined using platelets from 2-4 donors. Determinations were performed in duplicate for each donor.

[2] = system: platelet aggregation; experiment: Platelet aggregation initiated by other agonists; format: cell-based; settings: aggregation initiated by thrombin, epinephrin, collagen, or platelet activating factor
[3] = Preliminary in vivo antithrombotic studies

Substance: Echistatin [Synthetic Echistatin]
- IC50 [1]: 0.033 µM
- prevention of platelet aggregation [2]: prevents aggregation
- antithrombotic effect in vivo [3]: very effective antithrombotic agent
